Data from ChEMBL document CHEMBL1201862, “PubChem BioAssay data set” (2004).
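These data come from cells grown in 96-well plates and exposed to compound for 48 hours at five concentrations. Abbreviation: GI50, concentration required for 50% inhibition of growth.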 Active and inactive are the calls of the source. Cut-off read from the data, not from the text of the source: active = GI50 up to about 1.1 µM and inactive = higher.

Tests used:
Experiment in all cases: NCI tumour cell line growth inhibition, 48 h
A549 = tested on: A549
COLO 205 = tested on: COLO 205
HL-60 = tested on: HL-60
HOP-92 = tested on: HOP-92
HT-29 = tested on: HT-29
IGROV-1 = tested on: IGROV-1
M14 = tested on: M14
MCF7 = tested on: MCF7
MDA-N = tested on: MDA-N
Malme-3M = tested on: Malme-3M
PC-3 = tested on: PC-3
RXF 393 = tested on: RXF 393
SF-539 = tested on: SF-539
SK-MEL-2 = tested on: SK-MEL-2
SK-OV-3 = tested on: SK-OV-3
SN12C = tested on: SN12C
UO-31 = tested on: UO-31
SNB-75 = tested on: SNB-75
SR = tested on: SR

Measured: GI50

CC1(C)CC2(C)OC(=N)C1(C#N)C2(C#N)C#N (centres undefined)
inactive: A549 23.2 µM | COLO 205 2.56 µM | HL-60 2.98 µM | HOP-92 1.57 µM | HT-29 2.77 µM | IGROV-1 15 µM | M14 11.6 µM | MCF7 8.55 µM | MDA-N 7.08 µM | Malme-3M 12.3 µM | PC-3 16.1 µM | RXF 393 11.6 µM | SF-539 12.1 µM | SK-MEL-2 17.4 µM | SK-OV-3 53.1 µM | SN12C 10.1 µM | UO-31 4.26 µM

COP(C)(=O)C1=CCN(C(=O)OCC[Si](C)(C)C)CC1 (centres undefined)
inactive: A549 > 100 µM | COLO 205 > 100 µM | HOP-92 > 100 µM | HT-29 > 100 µM | IGROV-1 > 100 µM | M14 > 100 µM | MCF7 > 100 µM | MDA-N > 100 µM | Malme-3M > 100 µM | PC-3 > 100 µM | RXF 393 > 100 µM | SK-MEL-2 > 100 µM | SK-OV-3 > 100 µM | SNB-75 > 100 µM | UO-31 > 100 µM

COC1=CC(=O)C(O)=C(CC2(C)C(C)CCC3(C)C2CCCC3(C)C)C1=O (centres undefined)
inactive: A549 2.99 µM | COLO 205 5.51 µM | HL-60 2.58 µM | HOP-92 2.38 µM | HT-29 10.3 µM | IGROV-1 5.2 µM | M14 2.18 µM | Malme-3M 4.03 µM | RXF 393 2.31 µM | SF-539 2.84 µM | SK-MEL-2 3.06 µM | SK-OV-3 18.2 µM | SN12C 3.7 µM | SNB-75 3.89 µM | SR 3.11 µM | UO-31 4.49 µM

CC(=O)[C@]1(C)[C@H](C)O[C@](C)(CO)[C@H]1O[Si](C)(C)c1ccccc1
inactive: A549 56.6 µM | COLO 205 56.6 µM | HL-60 18.4 µM | HOP-92 11.2 µM | HT-29 78.7 µM | IGROV-1 17.1 µM | M14 83 µM | MCF7 31.8 µM | MDA-N 54 µM | Malme-3M 15.4 µM | PC-3 45.5 µM | RXF 393 14.1 µM | SF-539 > 100 µM | SK-MEL-2 > 100 µM | SK-OV-3 > 100 µM | SN12C 51.6 µM | SNB-75 > 100 µM | SR 31.8 µM | UO-31 28.8 µM

C=CCC(C(=O)OC)C1(C(=O)OC)c2[nH]c3ccccc3c2CCN1Cc1ccccc1 (centres undefined)
inactive: A549 58.9 µM | COLO 205 > 100 µM | HL-60 18.2 µM | HOP-92 23.4 µM | HT-29 > 100 µM | IGROV-1 > 100 µM | M14 82.4 µM | Malme-3M 51.8 µM | RXF 393 33 µM | SF-539 > 100 µM | SK-MEL-2 > 100 µM | SK-OV-3 89.9 µM | SN12C > 100 µM | SNB-75 > 100 µM | SR 6.68 µM | UO-31 53.3 µM

COc1ccc(-c2ccc(C(=O)C=P(c3ccccc3)(c3ccccc3)c3ccccc3)cc2)cc1
inactive: A549 6.95 µM | COLO 205 3.94 µM | HL-60 3.94 µM | HOP-92 4.72 µM | HT-29 6.05 µM | M14 11.6 µM | MCF7 10.1 µM | MDA-N 13.2 µM | Malme-3M 18.7 µM | PC-3 7.55 µM | RXF 393 13.2 µM | SF-539 17.7 µM | SK-OV-3 16.9 µM | SN12C 14.9 µM | SR 16.2 µM | UO-31 3.13 µM
